Measurements: ChEMBL document CHEMBL2069169, “Novel triazines as potent and selective phosphodiesterase 10A inhibitors” (Bioorg Med Chem Lett, 2012)
Activity calls are given as the source filed them. No cut-off for these calls is given here.

Experiments:
Homo sapiens [1] = species: Homo sapiens; assay: Selectivity ratio of IC50 PDE2 to IC50 for human recombinant PDE10A
Phosphodiesterase 6 = assay: Inhibition of PDE6; type: protein assay, Homo sapiens
Rattus norvegicus [2] = assay: Antipsychotic activity in po dosed rat assessed as reduction of MK801-induced hyperactivity; type: functional; design: Activity: scale not given: the % may be the effect or the level left; settings: for minimal effective dose: Rattus norvegicus, po, read-out: MED
[3] = AUC in rat plasma at 2 mg/kg, iv and 10 mg/kg, po; type: ADME, organism-based
Phosphodiesterase 3 = Phosphodiesterase 3 (Homo sapiens, UniProt Q14432+Q13370); assay: Inhibition of PDE3; type: protein assay
[4] = Oral bioavailability in rat at 10 mg/kg; type: ADME, organism-based; settings: in vivo
[5] = Volume of distribution at steady state in rat at 2 mg/kg, iv and 10 mg/kg, po; type: ADME, organism-based; settings: in vivo, read-out: Vdss
[6] = biological target: cGMP-specific 3',5'-cyclic phosphodiesterase (Canis lupus familiaris, UniProt O77746); assay: Inhibition of PDE5; design: species or system Homo sapiens
[7] = AUC in rat brain at 2 mg/kg, iv and 10 mg/kg, po; type: ADME, organism-based
[8] = Elimination half life in rat at 2 mg/kg, iv and 10 mg/kg, po; type: ADME, organism-based; settings: in vivo, read-out: beta t1/2 (converted)
Rattus norvegicus [9] = assay: Antipsychotic activity in po dosed rat assessed as reduction of MK801-induced stereotyped sniffing; type: functional; design: Activity: scale not given: the % may be the effect or the level left; settings: for minimal effective dose: Rattus norvegicus, po, read-out: MED
Phosphodiesterase 4 = Phosphodiesterase 4 (Homo sapiens, UniProt P27815+Q08499+Q07343+Q08493); assay: Inhibition of PDE4; type: protein assay
[10] = Clearance in rat at 2 mg/kg, iv and 10 mg/kg, po; type: ADME, organism-based; settings: in vivo
Homo sapiens [11] = species: Homo sapiens; assay: Selectivity ratio of IC50 PDE9 to IC50 for human recombinant PDE10A
Homo sapiens [12] = species: Homo sapiens; assay: Selectivity ratio of IC50 PDE6 to IC50 for human recombinant PDE10A
Homo sapiens [13] = species: Homo sapiens; assay: Selectivity ratio of IC50 PDE11 to IC50 for human recombinant PDE10A
Homo sapiens [14] = species: Homo sapiens; assay: Selectivity ratio of IC50 PDE4 to IC50 for human recombinant PDE10A
Homo sapiens [15] = species: Homo sapiens; assay: Selectivity ratio of IC50 PDE7 to IC50 for human recombinant PDE10A
Homo sapiens [16] = species: Homo sapiens; assay: Selectivity ratio of IC50 PDE8 to IC50 for human recombinant PDE10A
Homo sapiens [17] = species: Homo sapiens; assay: Selectivity ratio of IC50 PDE3 to IC50 for human recombinant PDE10A
[18] = biological target: cAMP and cAMP-inhibited cGMP 3',5'-cyclic phosphodiesterase 10A (Homo sapiens, UniProt Q9Y233); assay: Inhibition of human recombinant PDE10A-catalyzed cAMP hydrolysis
[19] = biological target: cGMP-dependent 3',5'-cyclic phosphodiesterase (Homo sapiens, UniProt O00408); assay: Inhibition of PDE2
Homo sapiens [20] = species: Homo sapiens; assay: Selectivity ratio of IC50 PDE5 to IC50 for human recombinant PDE10A
Homo sapiens [21] = species: Homo sapiens; assay: Selectivity ratio of IC50 PDE1 to IC50 for human recombinant PDE10A
Rattus norvegicus [22] = assay: Antipsychotic activity in po dosed Sprague-Dawley rat assessed as reduction of conditioned avoidance response; type: functional
Rattus norvegicus [23] = assay: Antipsychotic activity in Sprague-Dawley rat assessed as reduction of conditioned avoidance response at 0.17 mg/kg, po; type: functional, organism-based; design: dose 0.17 mg/kg

Chain of cAMP and cAMP-inhibited cGMP 3',5'-cyclic phosphodiesterase 10A (Q9Y233 whole entry): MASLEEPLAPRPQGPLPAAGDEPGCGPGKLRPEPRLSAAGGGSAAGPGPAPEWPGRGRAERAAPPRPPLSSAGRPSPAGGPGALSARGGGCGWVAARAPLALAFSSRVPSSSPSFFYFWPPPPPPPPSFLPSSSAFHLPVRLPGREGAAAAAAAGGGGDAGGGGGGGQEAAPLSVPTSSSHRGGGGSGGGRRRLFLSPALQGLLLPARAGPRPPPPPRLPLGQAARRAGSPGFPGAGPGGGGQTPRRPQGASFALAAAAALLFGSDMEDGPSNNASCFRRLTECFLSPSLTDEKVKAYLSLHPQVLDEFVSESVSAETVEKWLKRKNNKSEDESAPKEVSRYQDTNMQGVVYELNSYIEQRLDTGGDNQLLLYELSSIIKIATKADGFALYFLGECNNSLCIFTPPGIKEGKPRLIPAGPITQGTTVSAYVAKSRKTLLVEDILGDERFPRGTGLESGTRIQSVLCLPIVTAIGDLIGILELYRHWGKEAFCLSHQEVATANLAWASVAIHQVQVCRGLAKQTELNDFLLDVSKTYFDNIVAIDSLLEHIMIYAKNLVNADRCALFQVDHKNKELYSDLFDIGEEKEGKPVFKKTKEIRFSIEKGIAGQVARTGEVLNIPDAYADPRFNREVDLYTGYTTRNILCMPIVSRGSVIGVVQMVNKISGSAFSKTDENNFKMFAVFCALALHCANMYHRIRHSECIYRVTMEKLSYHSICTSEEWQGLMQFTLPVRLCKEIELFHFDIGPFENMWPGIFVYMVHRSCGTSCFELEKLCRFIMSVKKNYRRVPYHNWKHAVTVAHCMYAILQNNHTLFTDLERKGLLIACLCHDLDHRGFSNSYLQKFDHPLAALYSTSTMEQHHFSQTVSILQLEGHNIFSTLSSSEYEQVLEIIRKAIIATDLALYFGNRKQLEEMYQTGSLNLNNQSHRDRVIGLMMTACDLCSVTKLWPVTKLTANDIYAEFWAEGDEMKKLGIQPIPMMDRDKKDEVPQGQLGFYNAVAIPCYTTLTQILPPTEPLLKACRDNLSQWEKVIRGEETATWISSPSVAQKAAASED
Chain of cGMP-dependent 3',5'-cyclic phosphodiesterase (O00408 whole entry): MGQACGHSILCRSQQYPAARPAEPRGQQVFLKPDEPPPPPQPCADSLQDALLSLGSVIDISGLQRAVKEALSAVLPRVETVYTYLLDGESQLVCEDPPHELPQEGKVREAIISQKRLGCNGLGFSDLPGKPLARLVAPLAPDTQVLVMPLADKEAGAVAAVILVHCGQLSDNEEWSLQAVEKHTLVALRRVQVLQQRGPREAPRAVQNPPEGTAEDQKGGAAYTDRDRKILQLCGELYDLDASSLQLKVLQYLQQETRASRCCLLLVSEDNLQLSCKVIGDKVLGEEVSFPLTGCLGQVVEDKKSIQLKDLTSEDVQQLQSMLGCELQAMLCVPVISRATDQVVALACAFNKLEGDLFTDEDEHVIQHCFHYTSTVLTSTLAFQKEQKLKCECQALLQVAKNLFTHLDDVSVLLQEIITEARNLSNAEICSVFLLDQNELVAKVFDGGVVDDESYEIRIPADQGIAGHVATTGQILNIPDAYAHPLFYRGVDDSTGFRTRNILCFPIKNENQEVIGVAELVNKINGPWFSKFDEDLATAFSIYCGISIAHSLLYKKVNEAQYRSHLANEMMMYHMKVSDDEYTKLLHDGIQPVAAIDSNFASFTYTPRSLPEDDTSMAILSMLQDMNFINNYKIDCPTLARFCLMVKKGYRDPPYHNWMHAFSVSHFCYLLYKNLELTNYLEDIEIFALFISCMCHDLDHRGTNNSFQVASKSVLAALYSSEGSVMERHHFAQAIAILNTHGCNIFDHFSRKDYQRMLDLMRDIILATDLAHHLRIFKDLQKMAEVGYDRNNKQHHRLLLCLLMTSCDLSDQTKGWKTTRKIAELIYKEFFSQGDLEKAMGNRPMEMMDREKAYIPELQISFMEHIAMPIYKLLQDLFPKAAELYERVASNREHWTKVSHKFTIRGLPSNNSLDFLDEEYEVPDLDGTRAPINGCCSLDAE

Ratio IC50 (Homo sapiens [1])	IC50 (Phosphodiesterase 6) [µM]	AUC [3] [ng·h/mL]	IC50 (Phosphodiesterase 3) [µM]	bioavailability [4] [%]	Vd [5] [L/kg]	IC50 [6] [µM]	AUC [7] [ng·h/mL]	half-life [8] [h]	IC50 (Phosphodiesterase 4) [µM]	clearance [10] [mL/min/kg]	Ratio IC50 (Homo sapiens [12])	Ratio IC50 (Homo sapiens [14])	Ratio IC50 (Homo sapiens [17])	Ratio IC50 (Homo sapiens [20])	Compound	Activity (Rattus norvegicus [2]) [%]	minimal effective dose (Rattus norvegicus [2]) [mg/kg]	Activity (Rattus norvegicus [9]) [%]	minimal effective dose (Rattus norvegicus [9]) [mg/kg]	other results
300	1.24	18700	> 10	100	0.4	4.95	2780	0.9	> 10	13					COc1cc(OC)c2nnc3c(C)nc(-c4ccncc4C)n3c2c1	71.7	0.5	57.4	0.5	
> 100	> 5		> 10			> 5			6.96		> 100	> 100	> 100	> 100	COc1ccnc2c1nnc1c(C)nc(-c3cccnc3C)n12					Ratio IC50 (Homo sapiens [11]): > 500; Ratio IC50 (Homo sapiens [13]): > 500; Ratio IC50 (Homo sapiens [15]): > 500; Ratio IC50 (Homo sapiens [16]): > 500; IC50 [18]: 0.0124 µM; IC50 [19]: 0.974 µM; Ratio IC50 (Homo sapiens [21]): > 500
	1.79	1600	> 10	53	1.3	2.29	622	4.5	> 10	5					COc1cc(C(F)(F)F)cc2c1nnc1c(C)nc(-c3ccncc3C)n12	40.5	0.1	18.4	0.1	ID30 (Rattus norvegicus [22]): 0.123 mg/kg; ED50 (Rattus norvegicus [22]; Rattus norvegicus, Sprague-Dawley, po, read-out: ID50 (the source's name)): 0.204 mg/kg; Activity (Rattus norvegicus [23]): Active
> 100	> 10		> 10			> 10			3.68		> 100	> 100	> 100	> 100	COc1ccnc2c1nnc1c(C)nc(-c3ccncc3C)n12	55.4	2.5	34.1	2.5	
